Measurements reported in patent US20220184037A1, “PHARMACEUTICAL AGENTS TARGETING CANCER STEM CELLS” (THE JOHNS HOPKINS UNIVERSITY, priority 2020, published 2022).

Columns and labels:
[1] = system: xenograft tumors that acquired resistance to erlotinib (5637 cells); assay: In vivo therapeutic efficacy in tumors with acquired resistance to erlotinib; parameters: species or system mice; settings: western blotting (FIG. 7G)
Experimental: (§1) For therapeutic efficacy, mice were randomly assigned into experimental groups (five mice per group) when tumors reached a volume of […]. For celecoxib and/or VP treatment, celecoxib (5 mg/kg) was administered via intraperitoneal (i.p.) injection once a day (17), and VP (50 mg/kg) was administered via i.p. every other day (18). EP4 antagonist ONO-AE3-208 (10 mg/kg) was administered via i.p. once a day (19). Control was applied with same volume (10 μL per injection) of 10% dimethyl sulphoxide in 1% TWEEN 80 (Sigma-Aldrich). For GEM and CDDP (GC) treatment (i.p.), CDDP (6 mg/kg) was only applied after the first GEM (60 mg/kg) treatment on day 2, followed by three consecutive treatments of GEM on day 5, 8 and 11 (17). The next cycle was started on day 18, and the treatment was continued until tumor reached 2 cm in diameter. For erlotinib treatment, the mice were treated once a day, 6 days per week, by oral gavage with erlotinib (100 mg/kg) or control (PBS containing 0.5% methyl cellulose (Sigma-Aldrich) and 0.1% TWEEN 80) (20). Tumor size was measured at least every three days. Therapeutic efficacy was assessed using percentage change after treatment related to tumor size before treatment. […]

COX2 = assay: Western blotting of COX2 expression in bladder cancer cells; format: cell-based, human
Experimental: Whole cell lysates were extracted using RIPA buffer (Thermo Scientific) supplemented with 10 μL/mL Halt™ Protease Inhibitor Cocktail Kit (Life Technologies) and 30 μL/mL Halt™ Phosphatase Inhibitor Cocktail Kit (Life Technologies). The protein concentrations were determined using a Pierce™ BCA Protein Assay Kit (Life Technologies), and the protein were separated on. NuPAGE 4-12% Bis-Tris Gel (Life Technologies) according to the manufacturer's protocol. COX2 (D5H5), NANOG (D73G4), OCT4 (D7O5Z), CD133 (A3G6K), Snail (C15D3), ZEBI (D80D3), Vimentin (D21H3), CDH2 (D4R1H), CDH1 (24E10), p-EGFR (D7A5), EGFR (D38B1), p-AKT (D9E), AKT (cat #, 9272), p-ERK (D13.14.4E), ERK (137F5), p-YAP1 (D9W2I), p-Src (cat #, 2101), Src (36D10), DNMT1 (D63A6), DNMT3A (D23G1), and DNMT3B (D7070) antibodies were obtained from Cell Signaling Technology (Danvers, Mass., USA), except for SOX2 (EPR3131; Abeam, Cambridge, USA), YAP1 (ab52771; Abeam), CD24 (cat #, AF5247-SP; R&D Systems, Minneapolis USA) and β-actin (A2228; Sigma-Aldrich). Secondary horseradish peroxidase (HRP)-conjugated antibodies were obtained from Cell Signaling Technology, and chemiluminescent detection of HRP-labeled antibodies was performed using Amersham ECL Prime Western Blotting Detection Reagent (GE Healthcare, Piscataway, USA). As loading control, β-actin was used.

[2] = system: promoters of miR-126, miR-296 and miR-200c; assay: Bisulfite sequencing of miRNA promoter methylation; format: cell-based, human; settings: spheroid cells
[3] = Body weight of treated mice; format: in vivo; settings: mice treated with inhibitors compared with control
Experimental: as §1

[4] = system: panel of miRNAs in BFTC 905 cells; assay: Expression of a panel of miRNAs; format: cell-based, human; settings: COX2 inhibitor
Experimental: Total RNA from cell lines was isolated using the RNeasy Plus Mini kit (Qiagen, Valencia, USA) according to the manufacturer's protocol. Total RNA extraction from bladder tissue was performed with the QIAzol Lysis Reagent (Qiagen) followed by phenol extraction and ethanol precipitation. Total RNA was eluted in DEPC treated water and stored at −80 ° C. Total RNA extraction from urine was performed using the MirVana miRNA Isolation Kit (Ambion, Austin, USA). These total RNA were converted to cDNA using the SuperScript III First-Strand Synthesis System (Life technologies, Carlsbad, USA), which was then used as a template for Q-RT-PCR. Q-RT-PCR was performed using the Fast SYBR Green Master Mix (Thermo Fisher Scientific, Waltham, USA) on a 7900HT Fast Real-Time PCR System (Life technologies) in triplicate. Micro RNA (miRNA) extraction was performed using the MirVana miRNA Isolation Kit, and was reverse transcribed using TaqMan reverse transcription kit (Applied Biosystems, Foster City, USA) and miRNA-specific RT primers provided with TaqMan microRNA assays (Applied Biosystems). Q-RT-PCR for miRNAs was performed using the TaqMan Universal PCR Master Mix according to the manufacturer's protocol. SDS software (Applied Biosystems) was used to determine cycle threshold (Ct) values. Expression level was quantified relative to β-actin for mRNA and RNU6B for miRNA using the 2-ΔΔCt method (12).

[5] = system: let-7 host gene MIRLET7BHG promoter; assay: Bisulfite sequencing of let-7 host gene promoter methylation; format: cell-based, human; settings: 10 μM celecoxib, 2 μM PGE2, or 5 μM 5-Aza-dC for 5 days
Experimental: Cell pellets were digested with 1% sodium dodecyl sulfate and 50 μg/mL proteinase K (Roche, Nutley, USA) at 48° C. overnight. Isolation of genomic DNA from cell lines was performed with the phenol-chloroform extraction protocol followed by ethanol precipitation. Bisulfite treatment was conducted using an EpiTect Bisulfite K ft (QIAGEN, Valencia, USA), and was subsequently amplified via PCR using primers as shown in the following table. PCR products were purified using the QIAquick Gel Extraction kit (Qiagen), and sequenced by Genewiz DNA sequencing service (Genewiz, South Plainfield, USA). The data were analyzed using the Sequence Scanner v1.0 software (Life technologies). A methylation frequency of ≥50% of total CpG sites within the amplified region was considered “methylation-positive”. For demethylation, cells ([…]) dissolved in 50% acetic acid or were mock-treated with phosphate buffered saline (PBS) including the same amount of acetic acid every 24 hours for 5 days. When combined with the histone deacetylase inhibitor TSA (Sigma), 300 nmol/L TSA was added to the medium for the final 24 hours.

**Q.** For C#Cc1cccc(Nc2ncnc3cc(OCCOC)c(OCCOC)cc23)c1 [erlotinib, Erlotinib], which “EGFR-MAPK signaling in xenograft tumors” value [1] is on record?
**A.** remained suppressed

**Q.** What about the COX2 expression (COX2; basal-type cells, 1 μM erlotinib) of the same compound?
**A.** increased COX2 expression

**Q.** And the “levels of COX2 expression” value (COX2; non-basal-type cells, erlotinib)?
**A.** did not affect

**Q.** With Cc1ccc(-c2cc(C(F)(F)F)nn2-c2ccc(S(N)(=O)=O)cc2)cc1 [celecoxib, Celecoxib] as the compound, how does the “promoter methylation of miR-126, miR-296, miR-200c” value [2] read?
**A.** demethylated

**Q.** And the body weight loss [3]?
**A.** did not observe body weight loss

**Q.** And the “expression of several miRNAs” value [4]?
**A.** induced expression

**Q.** And the “promoter methylation of the let-7 host gene” value [5]?
**A.** demethylated
